The test system of assay [1] is Microfilaria of Dirofilaria immitis. Nature of the assay: Method F: microfilaria of Dirofilaria immitis in microtitre plate. As to conditions: test concentration 50 ppm, assessment at 24 hours, read-out: motility inhibition. On the procedure: Method F: Screening Method to Test Activity of Compounds Against Microfilaria of Dirofilaria immitis.
Four hundred to six hundred microfilaria of Dirofilaria immitis were added to wells of a microtitre plate containing buffer and the test compound in DMSO. The microtitre plate was then held at 37° C. in an environment containing 5% CO2. An assessment was conducted at 24 hours to determine survival of the microfilaria. Microfilaria exposed to DMSO and no test compound served as controls. Compounds numbers 1.003, 1.012, 1.013, 1.064, 1.086, 1.087, 1.090, 1.094, 2.043, 2.046, 2.047, 2.048, 2.049, 3.005, 3.006, 3.009, 3.011, 3.012, 3.017, 3.019 and 3.023 gave at least 90% motility inhibition at a test concentration of 50 ppm.

The subject of assay [2] is Haemonchus contortus. Put plainly: Method B: Haemonchus contortus in vivo in Mongolian gerbil, oral gavage. The arrangement: species or system Mongolian gerbil (Meriones unguiculatus). Particulars: 72 h, Mongolian gerbils, read-out: reduction in nematode infestation. On the procedure:
Method B: Screening Method to Test Activity of Compounds Against Haemonchus contortus In Vivo in Mongolian Gerbil (Meriones unguiculatus).
Mongolian gerbils, at least five weeks old, were immunosuppressed and artificially infected with ca. 1000 ensheathed Haemonchus contortus third instar larvae. Six days after infection, the Mongolian gerbils were treated by oral gavage with the test compounds, dissolved in a mixture of 2 parts DMSO and 1 part polyethylene glycol (PEG400), at doses of 100 mg/kg and dissolved in pure polyethylene glycol (PEG400) at doses of 10 and 1 mg/kg. Jirds treated only with the placebo (2 parts DMSO and 1 part PEG400 or pure PEG400) served as controls. On day 9 (3 days after treatment) the jirds were euthanized and necropsied for recovery of parasites from the stomach. Efficacy was calculated as the average % reduction in the number of worms in each test group compared with the average number of worms from the control group. […] Compound numbers 1.001, 1.008, 1.012, 1.013 and 1.014 provided at least 95% reduction in nematode infestation in Mongolian gerbils treated by oral gavage with test article at a dose of 100 mg/kg. Compound numbers 1.012, 1.033, 1.064, 2.008, 2.037, 2.038, 2.040, 2.041, 3.001 provided at least 95% reduction in nematode infestation at a dose of 10 mg/kg. Compound numbers 1.094, 2.048, 3.001, 3.007 and 3.009, provided at least 95% reduction in nematode infestation at a dose of 1 mg/kg. Compound numbers 3.005, 3.006, 3.011, 3.012, 3.017 and 3.019, provided at least 95% reduction in nematode infestation at a dose of 0.5 mg/kg.

Assay [3] deals with Trichostrongylus colubriformis. Nature of the assay: Method D: screening against Trichostrongylus colubriformis, L1 larvae in microtitre plate. As to conditions: 96 h, test concentration 0.0025 ppm, 4 days assessment, read-out: motility inhibition. Here is the method: Method D: Screening Method to Test Activity of Compounds Against Trichostrongylus colubriformis.
Twenty L1 Trichostrongylus colubriformis larvae were added to wells of a microtitre plate containing a nutrient medium and the test compound in DMSO. The microtitre plate was then held at 27° C. where the L1 larvae were allowed to develop. An analysis was conducted at 4 days to determine successful development to the L3 stage. Larvae exposed to DMSO and no test compound served as controls. Compounds numbers 1.008, 1.014, 1.042, 1.047, 1.048, 1.073, 2.001, 2.003 and 2.020, gave at least 90% motility inhibition at a test concentration of 0.15 ppm at the 4 days assessment. Compounds numbers 1.001, 1.003, 1.007, 1.011, 1.037, 1.038, 1.043, 1.056, 1.066, 1.070, 1.071, 2.012 and 2.016, gave at least 90% motility inhibition at a test concentration of 0.04 ppm at the 4 days assessment. Compounds numbers 1.012, 1.020, 1.021, 1.033, 1.034, 1.039, 1.064, 1.065, 2.008, 2.009 and 3.005 gave at least 90% motility inhibition at a test concentration of 0.01 ppm at the 4 days assessment. Compounds numbers 1.094, 2.040, 2.048, 2.049, 3.006, 3.009, 3.011 and 3.012 gave at least 90% motility inhibition at a test concentration of 0.0025 ppm at the 4 days assessment.

In assay [4] the test system is Haemonchus contortus. Nature of the assay: Method A: screening against Haemonchus contortus, L1 larvae in microtitre plate. Particulars: 96 h, test concentration 0.0025 ppm, 4 days assessment, read-out: motility inhibition. An excerpt: Method A: Screening Method to Test Activity of Compounds Against Haemonchus contortus.

The term inhibition denotes the relative decrease from the control value, in per cent.

Take `Cc1c(Br)cnc2cn(CC(C)(C#N)NC(=O)c3ccc(OC(F)(F)F)cc3)nc12` (centres unmarked) [Compound 3.009, N-[2-(6-Bromo-7-methyl-2H-pyrazolo[4,3-b]pyridin-2-yl)-1-cyano-1-methylethyl]-4-trifluoromethoxybenzamide]: the inhibition at 50 ppm in assay [1] is at least 90%. Besides, the inhibition in vivo at 1 mg/kg in assay [2] (dose 1 mg/kg) was at least 95%. Also, the inhibition at 0.0025 ppm in assay [3] and in assay [4] was at least 90% in each case.

With `CC(C#N)(Cn1cc2ncc(Br)cc2n1)NC(=O)c1ccc(OC(F)(F)F)cc1` (centres unmarked) [Compound 3.011, N-[2-(6-Bromo-2H-pyrazolo[4,3-b]pyridin-2-yl)-1-cyano-1-methylethyl]-4-trifluoromethoxybenzamide], the inhibition at 50 ppm in assay [1] is at least 90%. Besides, the inhibition in vivo at 0.5 mg/kg in assay [2] (dose 0.5 mg/kg) was at least 95%. For the same compound, the inhibition at 0.0025 ppm in assay [3] and in assay [4] was at least 90% in each case.

The values above are taken from patent publication US8088801B2, “Aryloazol-2-yl cyanoethylamino compounds, method of making and method of using thereof” (Merial Limited, priority 2007, dated 2012).
